Source: US20260283205A1, “ACYLATED DIHYDROCHALCONES, METHODS OF PRODUCTION AND USES THEREOF” (SYMRISE AG, priority 2023, published 2026)

What was measured:
[1] = tested on: panel of 20 trained panellists; experiment: Intrinsic sweetness: concentration in water equally sweet as a 1.5% sucrose solution; format: in vivo; settings: no significant difference (p<0.05) to 1.5% sucrose
Procedure: Compounds 9, 41, 57, 73 and 89 were provided as described in Example 3 and purified to >95% with preparative chromatography. The obtained compounds were used for sensory evaluations.
The intrinsic sweetness of the compounds was determined by a panel of 20 trained panellists. The intrinsic sweetness of a compound is determined by evaluating the sweetness of the compound at different concentrations in water against a 1.5% sucrose solution.
A mixture of butanoylated HG and a mixture of pentanoylated HG were provided as described in Example 3.
The intrinsic sweetness was determined as described in Example 4. As shown in the table, the concentrations of the acylated compounds, which represent equal sweetness as the 1.5% sucrose solution, are approximately ⅕ to ⅛ of the required concentration of HG (non-acylated). Thus, acylation of HG provides a strong increase of the intrinsic sweetness.

[2] = tested on: trained sensory panel (n=20); experiment: Paired comparison tests (Duo test): sweetness increase of 5% sucrose solution in water; format: in vivo; set-up: unit not given here; settings: dosage HG 50, compound 9 10, 41 5, 57 3, 73 5, 89 5 mg/kg
Procedure: The sensory impact of the compounds 9, 41, 57, 73 and 89 on a 5% sucrose solution in water was analysed by a trained sensory panel (n=20) using a series of paired comparison tests (Duo test). The samples were coded and randomized.

[3] = tested on: trained flavourist panel; experiment: Sensory profile (impact, intensity, mouthfeel, lingering sweetness) of 5% sucrose solution with added compound; format: in vivo; settings: for Lingering sweetness / Impact / Intensity / Mouthfeel: 5% sucrose solution (A1) + HG 50 ppm, compound 9 15 ppm, 41 5 ppm, 57 3 ppm, 73 5 ppm, 89 5 ppm; for Lingering sweetness: sucrose alone scores 1; for Impact: sucrose alone scores 3; for Intensity / Mouthfeel: sucrose alone scores 4
Procedure: A 5% sucrose solution was prepared. Compounds 9, 41, 57, 73 and 89 were provided as described in Example 3 and purified to >95% with preparative chromatography.
The sensory profile of the sucrose solution (control) and the sucrose solution including HG (control), compounds 9, 41, 57, 73 or 89 was determined by a trained flavourist panel comparing the impact, intensity and mouthfeel.

[4] = tested on: panel of five flavorists (n=5); experiment: Taste descriptors (scale 0-9) of sugar base with sweet tasting / sweet taste modulating substances, without (A) and with (B) compound 41 or 57; format: in vivo; settings: for Mouthfeel (0-9), sample A / Lingering sweetness (0-9), sample A / Onset sweetness (0-9), sample A / Overall sweetness (0-9), sample A / Lingering sweetness (0-9), Δ (B-A) / Mouthfeel (0-9), Δ (B-A) / Onset sweetness (0-9), Δ (B-A) / Overall sweetness (0-9), Δ (B-A): scale 0-9; for Mouthfeel (0-9), sample A / Lingering sweetness (0-9), sample A / Onset sweetness (0-9), sample A / Overall sweetness (0-9), sample A: n=5; for Onset sweetness (0-9), A / Overall sweetness (0-9), A: samples (A): sugar base (5% sucrose+0.1% citric acid) + PH 25, HT 12, HC 50, RS 75, LHG 20, PD 3 or SG 60 mg/kg, without compound 41; for Onset sweetness (0-9), A: base alone 2.0; for Overall sweetness (0-9), A: base alone 3.0
Procedure: A sugar base (5% sucrose+0.1% citric acid) was provided. Further, the sweet tasting substances RS (20% Rubusoside), SG (90% steviol oligoglucosides), HC (8% Hesperetin dihydrochalcone), LHG (52% mogroside V) and the sweet taste modulating substances PD (>95% Phyllodulcin), HT (>85% Hesperetin) and PH (>98% Phloretin) were provided and added to the sugar base to produce different samples (A).
A dose of 2 mg/kg compound 41 or, respectively, 1.2 mg/kg compound 57 was added to the samples to obtain samples (B).
Different taste descriptors were compared between the respective samples (A) and (B) by a panel of five flavorists (n=5) using a scale of 0-9.
The panelists were asked to neutralize with tap water between each sample and the intensity of the descriptors of each sample were defined before tasting the next sample. The tasting of each RS, SG, HC, LHG, PD, HT or PH (samples (A)) were followed by the samples with added RS, SG, HC, LHG, PD, HT or PH+compound (41 or 57) (samples (B)) with each being compared to the intensities of the base.

[5] = tested on: panel of five flavorists (n=5); experiment: Sweet taste modulation in lemonade bases with reduced sugar content, descriptor intensities 0-9; format: in vivo; settings: 5 mg/kg compound 41 or 3 mg/kg compound 57, intensity 0-9
Procedure: A dose of 5 mg/kg compound 41 or, respectively, 3 mg/kg compound 57 were applied to different sugar reduced lemonade bases to restore the overall and sweet taste of the respective matrix with reduced sugar content. Different descriptors were determined by a panel of five flavorists (n=5) and given as intensities from 0-9.
The lemonade bases were “full sugar”, “sugar reduced”, “Stevia Hybride”, “Sugar free base Suc/Ace K” and “Sugar free base Asp/Ace K” with the following recipes: […]

[6] = cited from earlier work
[7] = compound 41 series, sample A: sugar base (5% sucrose+0.1% citric acid) + sample substance alone at the listed dose (PH 25, HT 12, HC 50, RS 75, LHG 20, PD 3, SG 60 mg/kg)
[8] = compound 41 series, sample A: sugar base + sample substance alone at the listed dose
[9] = compound 57 series, sample A: sugar base + sample substance alone at the listed dose
[10] = difference between sample B (+1.2 mg/kg compound 57) and sample A
[11] = difference between sample B (+2 mg/kg compound 41) and sample A
[12] = lemonade base "Sugar free base Asp/Ace K"
[13] = lemonade base "Sugar free base Suc/Ace K"

Compound: CCCCCCC(=O)OC[C@H]1O[C@@H](Oc2cc(O)c(C(=O)CCc3ccc(OC)c(O)c3)c(O)c2)[C@H](O)[C@@H](O)[C@@H]1O [Compound 89, 6″-O-Heptanoyl-HG]
- Concentration of equal sweetness as 1.5% sucrose control [1]: 5 mg/kg
- Increase of sweetness [2]: 27.7
- Lingering sweetness [3]: 3-4
- Impact [3]: 4-5
- Intensity [3]: 6-7
- Mouthfeel [3]: 5

Compound: CCCCCC(=O)OC[C@H]1O[C@@H](Oc2cc(O)c(C(=O)CCc3ccc(OC)c(O)c3)c(O)c2)[C@H](O)[C@@H](O)[C@@H]1O [Compound 73, 6″-O-Hexanoyl-HG]
- Concentration of equal sweetness as 1.5% sucrose control [1]: 5 mg/kg
- Increase of sweetness [2]: 23.1
- Lingering sweetness [3]: 3-4
- Impact [3]: 4-5
- Intensity [3]: 6-7
- Mouthfeel [3]: 5

Compound: COc1ccc([C@@H]2CC(=O)c3c(O)cc(O)cc3O2)cc1O [HT, Hesperetin]
- Mouthfeel (0-9), sample A [4, 7]: 3.5
- Lingering sweetness (0-9), sample A [4, 8]: 0.0
- Lingering sweetness (0-9), sample A [4, 9]: 0.0
- Mouthfeel (0-9), sample A [4, 9]: 3.5
- Onset sweetness (0-9), sample A [4, 9]: 2.5
- Overall sweetness (0-9), sample A [4, 9]: 3.5
- Lingering sweetness (0-9), Δ (B-A) [4, 10]: 2.0
- Mouthfeel (0-9), Δ (B-A) [4, 10]: 0.5
- Onset sweetness (0-9), Δ (B-A) [4, 10]: 1.0
- Overall sweetness (0-9), Δ (B-A) [4, 10]: 1.5
- Lingering sweetness (0-9), Δ (B-A) [4, 11]: 1.0
- Mouthfeel (0-9), Δ (B-A) [4, 11]: 0.5
- Onset sweetness (0-9), A [4]: 2.5
- Overall sweetness (0-9), A [4]: 3.5

Compound: CCCC(=O)OC[C@H]1O[C@@H](Oc2cc(O)c(C(=O)CCc3ccc(OC)c(O)c3)c(O)c2)[C@H](O)[C@@H](O)[C@@H]1O [Compound 41, 6″-O-Butanoyl-HG]
- Lingering sweetness (0-9), Δ (B-A) [4, 11]: 1.0
- Mouthfeel (0-9), Δ (B-A) [4, 11]: 1.0
- Concentration of equal sweetness as 1.5% sucrose control [1]: 5 mg/kg
- Increase of sweetness [2]: 24.4
- Lingering sweetness [3]: 2-3
- Impact [3]: 4-5
- Intensity [3]: 5-6
- Mouthfeel [3]: 5
- Lingering sweetness ([5]; lemonade base "Stevia Hybrid"): 1
- Mouthfeel ([5]; lemonade base "Stevia Hybrid"): 4.5
- Onset ([5]; lemonade base "Stevia Hybrid"): 4
- Overall sweetness ([5]; lemonade base "Stevia Hybrid"): 5.5
- Lingering sweetness [5, 12]: 2.5
- Mouthfeel [5, 12]: 3.5
- Onset [5, 12]: 4
- Overall sweetness [5, 12]: 5
- Lingering sweetness [5, 13]: 3
- Mouthfeel [5, 13]: 2
- Onset [5, 13]: 2.5
- Overall sweetness [5, 13]: 4.5
- Lingering sweetness ([5]; lemonade base "Sugar reduced"): 0.5
- Mouthfeel ([5]; lemonade base "Sugar reduced"): 3.5
- Onset ([5]; lemonade base "Sugar reduced"): 4
- Overall sweetness ([5]; lemonade base "Sugar reduced"): 4.5

Compound: COc1ccc(CCC(=O)c2c(O)cc(O[C@@H]3O[C@H](COC(C)=O)[C@@H](O)[C@H](O)[C@H]3O)cc2O)cc1O [Compound 9, 6″-O-Acetyl-HG]
- Concentration of equal sweetness as 1.5% sucrose control [1]: 15 mg/kg
- Increase of sweetness [2]: 33.1
- Lingering sweetness [3]: 2
- Impact [3]: 3
- Intensity [3]: 4-5
- Mouthfeel [3]: 4-5

Compound: O=C(CCc1ccc(O)cc1)c1c(O)cc(O)cc1O [PH, Phloretin]
- Mouthfeel (0-9), sample A [4, 7]: 4.0
- Lingering sweetness (0-9), sample A [4, 8]: 0.0
- Lingering sweetness (0-9), sample A [4, 9]: 0.0
- Mouthfeel (0-9), sample A [4, 9]: 3.5
- Onset sweetness (0-9), sample A [4, 9]: 2.5
- Overall sweetness (0-9), sample A [4, 9]: 3.5
- Lingering sweetness (0-9), Δ (B-A) [4, 10]: 1.5
- Mouthfeel (0-9), Δ (B-A) [4, 10]: 0.5
- Onset sweetness (0-9), Δ (B-A) [4, 10]: 0.5
- Overall sweetness (0-9), Δ (B-A) [4, 10]: 1.0
- Lingering sweetness (0-9), Δ (B-A) [4, 11]: 1.0
- Mouthfeel (0-9), Δ (B-A) [4, 11]: 0.5
- Onset sweetness (0-9), A [4]: 3.0
- Overall sweetness (0-9), A [4]: 4.0

Compound: COc1ccc([C@H]2Cc3cccc(O)c3C(=O)O2)cc1O [PD, Phyllodulcin]
- Mouthfeel (0-9), sample A [4, 7]: 4.0
- Lingering sweetness (0-9), sample A [4, 8]: 1.0
- Lingering sweetness (0-9), sample A [4, 9]: 1.0
- Mouthfeel (0-9), sample A [4, 9]: 3.5
- Onset sweetness (0-9), sample A [4, 9]: 2.5
- Overall sweetness (0-9), sample A [4, 9]: 4.0
- Lingering sweetness (0-9), Δ (B-A) [4, 10]: 0.5
- Mouthfeel (0-9), Δ (B-A) [4, 10]: 1.0
- Onset sweetness (0-9), Δ (B-A) [4, 10]: 0.5
- Overall sweetness (0-9), Δ (B-A) [4, 10]: 1.0
- Lingering sweetness (0-9), Δ (B-A) [4, 11]: 1.0
- Mouthfeel (0-9), Δ (B-A) [4, 11]: 0.5
- Onset sweetness (0-9), A [4]: 2.5
- Overall sweetness (0-9), A [4]: 4.0

Compound: CCCCC(=O)OC[C@H]1O[C@@H](Oc2cc(O)c(C(=O)CCc3ccc(OC)c(O)c3)c(O)c2)[C@H](O)[C@@H](O)[C@@H]1O [Compound 57, 6″-O-Pentanoyl-HG]
- Lingering sweetness (0-9), Δ (B-A) [4, 10]: 1.0
- Mouthfeel (0-9), Δ (B-A) [4, 10]: 0.5
- Onset sweetness (0-9), Δ (B-A) [4, 10]: 0.5
- Overall sweetness (0-9), Δ (B-A) [4, 10]: 1.0
- Concentration of equal sweetness as 1.5% sucrose control [1]: 3 mg/kg
- Increase of sweetness [2]: 25.2
- Lingering sweetness [3]: 3
- Impact [3]: 4-5
- Intensity [3]: 5-6
- Mouthfeel [3]: 5
- Lingering sweetness ([5]; lemonade base "Stevia Hybrid"): 2.5
- Mouthfeel ([5]; lemonade base "Stevia Hybrid"): 5
- Onset ([5]; lemonade base "Stevia Hybrid"): 4
- Overall sweetness ([5]; lemonade base "Stevia Hybrid"): 6
- Lingering sweetness [5, 12]: 3.5
- Mouthfeel [5, 12]: 3.5
- Onset [5, 12]: 3.5
- Overall sweetness [5, 12]: 5
- Lingering sweetness [5, 13]: 4
- Mouthfeel [5, 13]: 2.5
- Onset [5, 13]: 3
- Overall sweetness [5, 13]: 5
- Lingering sweetness ([5]; lemonade base "Sugar reduced"): 2
- Mouthfeel ([5]; lemonade base "Sugar reduced"): 4
- Onset ([5]; lemonade base "Sugar reduced"): 4
- Overall sweetness ([5]; lemonade base "Sugar reduced"): 4.5

Compound: COc1ccc(CCC(=O)c2c(O)cc(O[C@H]3O[C@@H](CO)[C@H](O)[C@@H](O)[C@@H]3O)cc2O)cc1O [HG, hesperetin dihydrochalcone-4′-O-β-d-glucoside, reference compound]
- Concentration of equal sweetness as 1.5% sucrose control [1]: 50 mg/kg
- Increase of sweetness [2]: 34.6
- sweet taste of HG in water ([6]; 5 mg/kg HG in water): does not taste sweet
- isosweet sucrose concentration ([6]; 10 mg/kg HG in water): 0.5%
- isosweet sucrose solution concentration ([6]; 20 mg/kg HG in water): 1%
- effect on impact, intensity and mouthfeel of the sucrose solution ([3]; 5% sucrose solution): increases the impact, intensity and mouthfeel
- Lingering sweetness [3]: 2
- Impact [3]: 4
- Intensity [3]: 5
- Mouthfeel [3]: 4-5
